# Laboratory results taken from patent EP4501112A1, “PLANT DEFENSE ELICITORS” (Globachem NV, priority 2023, dated 2025).
# Assays:
# Assay type in all cases: in vivo
# [1] = tested on: Cacopsylly pyri; test: Field trial, foliar spray against C. pyri on pear trees; details: 650 g/ha
# Text: DISEASE/PEST: Cacopsylly pyri CROP: Pear trees (pyrus communis spp. Williams) APPLICATION: Foliar spray (spring - when 50% of eggs are yellow) EXPERIMENT/TRIAL PROTOCOL: Foliar spray was applied in the field with a motorized sprayer (OleomacSP126) in spring when the insects appeared on the crop (BBCH 72-75). The trial design consisted of a randomized complete block with 4 replications per treatment. The treated area per plot was 24m^2. Used water volume was […]/ha. Evaluation was done by counting nymphs per 10 shoots. […] This is due to the effect on the plant's immune system. […] Table 6. Efficacy assessment: % efficacy versus untreated (%UNCK) of C. pyri on P. communis (field)
# [2] = tested on: English grain aphid (Sitobion avenae); test: Survival of S. avenae on wheat after foliar spray (greenhouse pots); details: 0.65 g pelargonic acid in 500 mL water
# Protocol: DISEASE/PEST: English grain aphid (Sitobion avenae) CROP: WHEAT (Triticum aestivum) APPLICATION: FOLIAR PROTOCOL: T. aestivum plants were grown in pots (8x8 cm) in the greenhouse until reaching a height of 10 cm. Each pot contained 50 seeds. Each treatment consisted of 3 replicates. Plants were sprayed with a handheld sprayer containing 0.65 g of pelargonic acid in 500 mL of water for the 3 replicates. Control plants were sprayed with water. Spraying solutions (as noted in the Table 1) were prepared freshly before treatment. S. avenae (N=10) were added 1 hour after spraying. Insects were counted, 1, 4, 6, 12 and 14 days after the treatment applied. Table 1. Efficacy assessment survival of S. avenae on T. aestivum (number of aphids)
# [3] = tested on: S. exigua; test: Direct feeding of pelargonic acid (comparative example 1c); details: Table 3 is an image
# Text: Example 1c. Direct effect pelargonic acid (Comparative example) [table]
# [4] = tested on: Puccinia triticina (PUCCTR); test: Greenhouse trial, seed treatment against PUCCTR in wheat
# Text: [table] Table 9. Efficacy assessment of pelargonic acid as seed treatment of PUCCTR in wheat (variety Benchmark)
# [5] = tested on: Root knot nematode (Meloidogyne graminicola); test: Root knot nematode gall development on wheat roots after treatment; details: foliar spraying, stock solution 200 x diluted; 400 J2 per plant 24 hours after treatment; 14 days after inoculation
# Protocol: DISEASE/PEST: Root knot nematode (Meloidogyne graminicola) CROP: Triticum aestivum APPLICATION: Foliar application EXPERIMENT/TRIAL PROTOCOL: After seed germination, wheat plants were grown individually for 2 weeks in a PVC tube (18 cm height, 3 cm diameter) filled with a substrate of sand and a water-absorbing polymer (DCM Aquaperla). Plants were grown at 24 °C and supplied with Hoagland solution and water 3 times per week. They were treated after 2 weeks. Twenty-four hours after treatment they were inoculated with 400 nematode juveniles (second stage; J2) per plant. 8 individual plants were analyzed per treatment. Evaluation of nematode infection was done 14 days after inoculation. Development of galls on the roots was microscopically observed and counted. No females were observed yet at this early time point, in any of the treatments. The number of galls was reduced in the […], pelargonic acid ([…] decanoic acid (pm4) treated plants. Azelaic acid (pm3) had no effect on gall numbers in the used concentration. FORMULATION USED: […] PM1 is already formulated.
# [6] = seed treatment 3.8 g ai/ton, 11 dai
# [7] = seed treatment 7.6 g ai/ton, 11 dai
# [8] = seed treatment 38 g ai/ton, 11 dai
# [9] = seed treatment 76 g ai/ton, 21 dai
smiles,measurement,setting,value
"CCCCCCCCC(=O)O [Pelargonic acid, pelargonic acid]",% efficacy versus untreated (%UNCK) of C. pyri on P. communis (field),[1]; 14 DAA,56.4 b %
same,% efficacy versus untreated (%UNCK) of C. pyri on P. communis (field),[1]; 21 DAA,63.1 b %
same,% efficacy versus untreated (%UNCK) of C. pyri on P. communis (field),[1]; 28 DAA,100 b %
same,% efficacy versus untreated (%UNCK) of C. pyri on P. communis (field),"[1]; 800L/ha water, 3 DAA",83.8 b %
same,survival of S. avenae on T. aestivum (number of aphids),[2]; 4 DAT,4.2
same,survival of S. avenae on T. aestivum (number of aphids),[2]; 6 DAT,7.4
same,survival of S. avenae on T. aestivum (number of aphids),"[2]; 10 aphids added 1 hour after spraying, 1 DAT",3
same,survival of S. avenae on T. aestivum (number of aphids),[2]; 12 DAT,9.6
same,survival of S. avenae on T. aestivum (number of aphids),[2]; 14 DAT,15
same,direct control of S. exigua,[3],no direct control
same,EFFICACY % ALL LEAVES,[4]; [6],17.3%
same,EFFICACY % LEAF 1,[4]; [6],0.0%
same,EFFICACY % LEAF 2,[4]; [6],14.3%
same,EFFICACY % LEAF 3,[4]; [6],17.6%
same,EFFICACY % LEAF 4,[4]; [6],20.0%
same,EFFICACY % ALL LEAVES,[4]; [7],29.6%
same,EFFICACY % LEAF 1,[4]; [7],0.0%
same,EFFICACY % LEAF 2,[4]; [7],7.1%
same,EFFICACY % LEAF 3,[4]; [7],11.8%
same,EFFICACY % LEAF 4,[4]; [7],70.0%
same,EFFICACY % ALL LEAVES,[4]; [8],6.3%
same,EFFICACY % LEAF 1,[4]; [8],0.0%
same,EFFICACY % LEAF 2,[4]; [8],7.1%
same,EFFICACY % LEAF 3,[4]; [8],11.8%
same,EFFICACY % LEAF 4,[4]; [8],0.0%
same,EFFICACY % ALL LEAVES,[4]; [9],19.2%
same,EFFICACY % LEAF 1,[4]; [9],31.8%
same,EFFICACY % LEAF 2,[4]; [9],18.9%
same,EFFICACY % LEAF 3,[4]; [9],12.0%
same,EFFICACY % LEAF 4,[4]; [9],14.0%
same,number of galls,[5],reduced
